Laboratory results published in patent publication US20230107216A1, “PANTETHEINE DERIVATIVES AND USES THEREOF” (Comet Therapeutics, Inc., priority 2018, published 2023).
Read-outs that look alike come from different tables or passages of the source.

How the values were obtained:
[1] = system: Very long-chain acyl-CoA dehydrogenase (VLCAD) primary fibroblasts GM17475; experiment: NADP+/NADPH (NADP/NADPH-Glo), VLCAD fibroblasts GM17475; type: cell-based; conditions: Homo sapiens, Fibroblast, 24h, read-out: Increase in Total NADP+ + NADPH
Protocol: (§1) Primary adherent fibroblasts were cultured in minimum essential medium (MEM) (Gibco, 25030081) supplemented with 2 mM L-Glutamine (Gibco, 25030081), 15% fetal bovine serum (FBS) (Gibco, 26400044) and 1% penicillin/streptomycin (Gibco, 5140122) at 37° C. and 5% CO2. Cells were collected for either passaging or experiment at ˜70-80% confluence. Cells were obtained by trypsinization and seeded in cell culture microplates either white plate (Thermo Fisher Scientific, 152028) for luminescent measurement or black plate (Thermo Fisher Scientific, 165305) for fluorescent based read out for different assays listed below. Cells were obtained by trypsinization and […] were seeded and allowed to adhere for 16-18 hours to have confluency around 70-80% in the cell well with culture media. After 24 hours prior to measurements (37° C., 5% CO2) media was changed to Dulbecco's Modified Eagle Medium (DMEM, Agilent Seahorse cat #103575-100) with the appropriate supplements as stated below.
(§2) Primary fibroblasts assayed were Propionic Acidemia (PA) (GM03590 Coriell Institute for Medical Research, Tsi 6337 Trans-Hit Bio), Methylmalonic Acidemia (MMA) (Tsi 5224 Trans-Hit Bio), Subnormal activation of pyruvate dehydrogenase complex (PDH) (GM01503 Coriell Institute for Medical Research), Very long-chain acyl-CoA dehydrogenase (VLCAD) (GM17475), Leigh Syndrome (LS) (GM03672, GM13411 Coriell Institute for Medical Research), Pyruvate Carboxylase Deficiency (PC) (GM00444 Coriell Institute for Medical Research). 10 μM of Compounds were added for 2 hours in PA, MMA lines and for 24h for the other fibroblast lines.
(§3) Assay was performed according to manufacturer instructions (NADP+/NADPH-Glo Assay Promega, G9082). Assay required a plate for total measurement of NADP+/NADPH and a plate for individual measurement of NADP+ or NADPH. For every assay a 12-point standard curve is prepared ranging from 400 nM to 0.625 nM. Media is removed and replaced with 50 μl of PBS for both assays.
(§4) For individual NADP+/NADPH measurements, 50 μl of 1% DTAB (Sigma, D5047) (cell lysis reagent) in 0.2N NaOH was added to the plates and 100 μl of lysate was split into two plates with 50 μl each from which ratio of NADP/NADPH can be calculated. 25 μl of 0.4N HCl were added to the NADP+ plates and both NADP+ and NADPH plates were heated at 60° C. for 15 minutes. The acid and heat treatment destroyed NADPH allowing individual NADP+ measurements while heating in basic conditions destroys NADP+ allowing individual NADPH measurement. After 15 minutes plates were allowed to come to room temperature and Trizma base (Sigma, T1699) was added to the NADP+ plates to neutralize the acid and HCl Trizma hydrochloride (Sigma, T2694) was added to the NADPH plates. The NADNADPH glo reagent was prepared by adding 125 μl of NAD cycling substrate, 125 μl of reductase, 125 μl of reductase substrate, 125 μl NAD cycling enzyme to a total of the 25 ml of NAD GLO reagent. 1:1 ratio of total volume of reagent was added to the individual NADP+, NADPH measurements (total 100 μl) and 50 μl were added for the total NAD/NADPH measurements. Luminescence was measured for 30-60 minutes within the linear range.
(§5) A total dead cell count was performed as described in Example 817 and only alive cells were used for analysis.

[2] = system: Peripheral blood mononuclear cells co-cultured with venular endothelial cells (HUVEC) (LPS system); experiment: BioMAP LPS system; type: cell-based, human; conditions: procedure of Example 827; for inhibition at 10 µM / activation at 10 µM / inhibition at 1 µM: Homo sapiens, HUVEC, 24 h; for activation at 10 µM: read-out: % increase in sTNFα
[3] = system: Coronary artery smooth muscle cells (CASM3C system); experiment: BioMAP CASM3C system (IL-1β, TNFα, IFNγ); type: cell-based, human; conditions: for inhibition at 10 µM: Homo sapiens, 24 h, read-out: % decrease in Thrombomodulin
[4] = system: Peripheral blood mononuclear cells co-cultured with B-cells (BT system)
[5] = system: Leigh Syndrome (LS) primary fibroblasts GM03672; experiment: NADP+/NADPH (NADP/NADPH-Glo), Leigh fibroblasts GM03672; type: cell-based; conditions: Homo sapiens, Fibroblast, Leigh GM03672 P8, assay condition B (1 mM glucose, 2 mM L-glutamine, 1 mM pyruvate, 10% FBS), 24h, read-out: Increase in Total NADP+ + NADPH
Protocol: as §1, §2, §3, §4, §5

[6] = VLCAD GM17475 P10, assay condition A (10 mM glucose, 2 mM L-glutamine, 1 mM pyruvate, 10% FBS)
[7] = 10 uM, read-out: % decrease in TissueFactor
[8] = 10 uM, procedure of Example 832
[9] = 10 uM, procedure of Example 829
[10] = 1 uM, read-out: % decrease in sPGE2
[11] = 10 uM, read-out: % decrease in IL-8
[12] = 10 uM, read-out: % decrease in sPGE2
[13] = 10 uM, read-out: % decrease in IL-1α
[14] = 1 uM, read-out: % decrease in IL-1α
[15] = VLCAD GM17475 P10, assay condition B (1 mM glucose, 2 mM L-glutamine, 1 mM pyruvate, 10% FBS)

Compound: CC[C@@H](O)CC(=O)SCCNC(=O)CCNC(=O)[C@H](O)C(C)(C)CO [Compound 1245, (2R)-2,4-dihydroxy-N-{2-[(2-{[(3R)-3-hydroxypentanoyl]sulfanyl}ethyl)carbamoyl]ethyl}-3,3-dimethylbutanamide]
- activation at 10 µM [1, 6]: ≥ 10%

Compound: C[C@@H](O)CC(=O)CC(=O)SCCNC(=O)CCNC(=O)[C@H](O)C(C)(C)CO [Compound 42, (2R)-2,4-dihydroxy-N-[2-[(2-[[(5R)-5-hydroxy-3-oxohexanoyl]sulfanyl]ethyl)carbamoyl]ethyl]-3,3-dimethylbutanamide]
- activation at 10 µM [1, 6]: ≥ 10%
- % decrease in Thrombomodulin ([2]; 10 uM): ≥10%
- inhibition at 10 µM [2, 7]: ≥ 10%
- activation at 10 µM ([2]; 10 uM): ≥ 10%
- % increase in M-CSF [3, 8]: ≥10%
- % increase in Proliferation [3, 8]: ≥10%
- % increase in sIL-2 [4, 9]: ≥10%
- % increase in sTNFα [4, 9]: ≥10%

Compound: CC(=O)SCCNC(=O)CCNC(=O)[C@H](O)C(C)(C)COC(=O)CCC(=O)O [Compound 1242, (R)-12-hydroxy-13,13-dimethyl-2,7,11,16-tetraoxo-15-oxa-3-thia-6,10-diazanonadecan-19-oic acid]
- activation at 10 µM [1, 6]: ≥ 10%

Compound: COC(=O)CCC(=O)SCCNC(=O)CCNC(=O)[C@H](O)C(C)(C)COC(C)=O [Compound 138]
- % increase in Tissue Factor ([2]; 1 uM): ≥10%
- inhibition at 1 µM [2, 10]: ≥ 10%
- inhibition at 10 µM ([3]; 10 uM): ≥ 10%
- % decrease in sIL-2 ([4]; 1 uM, procedure of Example 829): ≥10%
- % decrease in sTNFα ([4]; 1 uM, procedure of Example 829): ≥20%

Compound: CC(=O)SCCNC(=O)CCNC(=O)[C@H](O)C(C)(C)COC(=O)[C@H](C)N [Compound 502, (3R)-3-[(2-[[2-(acetylsulfanyl)ethyl]carbamoyl]ethyl)carbamoyl]-3-hydroxy-2,2-dimethylpropyl (2S)-2-aminopropanoate]
- inhibition at 10 µM [2, 11]: ≥ 10%
- inhibition at 10 µM [2, 7]: ≥ 10%
- inhibition at 10 µM [2, 12]: ≥ 10%
- inhibition at 10 µM ([3]; 10 uM): ≥ 10%

Compound: CC(O)C(C(=O)SCCNC(=O)CCNC(=O)[C@H](O)C(C)(C)CO)C(C)O (stereo partly drawn) [Compound 1285, (2R)-2,4-dihydroxy-N-[2-[(2-[[3-hydroxy-2-(1-hydroxyethyl)butanoyl]sulfanyl]ethyl)carbamoyl]ethyl]-3,3-dimethylbutanamide]
- activation at 10 µM [1, 6]: ≥ 10%

Compound: COC(=O)CC(SCCNC(=O)CCNC(=O)[C@H](O)C(C)(C)COC(C)=O)C(=O)OC (stereo partly drawn) [Compound 149, 1,4-dimethyl 2-[(2-[3-[(2R)-4-(acetyloxy)-2-hydroxy-3,3-dimethylbutanamido]propanamido]ethyl)sulfanyl]butanedioate]
- % increase in Tissue Factor ([2]; 1 uM): ≥10%
- % increase in IL-8 ([2]; 10 uM): ≥10%
- inhibition at 10 µM [2, 13]: ≥ 10%
- inhibition at 10 µM [2, 7]: ≥ 20%
- inhibition at 10 µM [2, 12]: ≥ 10%
- % increase in IL-6 [3, 8]: ≥10%
- inhibition at 10 µM ([3]; 10 uM): ≥ 10%
- % increase in sIL-2 [4, 9]: ≥20%
- % increase in sTNFα [4, 9]: ≥10%

Compound: CC(C)(CO)[C@@H](O)C(=O)NCCC(=O)NCCSC(=O)[C@@H](N)Cc1ccc(O)c(O)c1 [Compound 371, (2R)—N-[2-[(2-[[(2S)-2-amino-3-(3,4-dihydroxyphenyl)propanoyl]sulfanyl]ethyl)carbamoyl]ethyl]-2,4-dihydroxy-3,3-dimethylbutanamide]
- % decrease in sTNFα ([2]; 10 uM): ≥10%
- inhibition at 1 µM [2, 14]: ≥ 10%
- inhibition at 10 µM [2, 11]: ≥ 10%
- inhibition at 10 µM [2, 12]: ≥ 10%
- % increase in sIL-2 ([4]; 1 uM, procedure of Example 829): ≥20%
- % increase in PBMC cytotoxicity ([4]; human, 72 h, 10 µM): ≥10%

Compound: CC(O)CC(O)CC(=O)SCCNC(=O)CCNC(=O)[C@H](O)C(C)(C)CO (stereo partly drawn) [Compound 400]
- activation at 10 µM [1, 15]: ≥ 10%

Compound: CCCCCCC(=O)SCCNC(=O)CCNC(=O)[C@H](O)C(C)(C)CO [Compound 372, (2R)—N-(2-[[2-(heptanoylsulfanyl)ethyl]carbamoyl]ethyl)-2,4-dihydroxy-3,3-dimethylbutanamide]
- inhibition at 1 µM [2, 14]: ≥ 10%
- inhibition at 10 µM [2, 11]: ≥ 20%
- inhibition at 10 µM [2, 7]: ≥ 10%
- activation at 10 µM ([2]; 10 uM): ≥ 10%
- % decrease in LDLR ([3]; 1 uM, procedure of Example 832): ≥10%
- % decrease in VCAM-1 ([3]; 1 uM, procedure of Example 832): ≥10%
- inhibition at 10 µM ([3]; 10 uM): ≥ 10%
- % increase in sIL-2 ([4]; 1 uM, procedure of Example 829): ≥10%
- % increase in sIL-17 [4, 9]: ≥20%

Compound: C[C@H](O)CC(=O)CC(=O)SCCNC(=O)CCNC(=O)[C@H](O)C(C)(C)CO [Compound 1306, (2R)-2,4-dihydroxy-N-[2-[(2-[[(5S)-5-hydroxy-3-oxohexanoyl]sulfanyl]ethyl)carbamoyl]ethyl]-3,3-dimethylbutanamide]
- activation at 10 µM [5]: ≥ 10%

Compound: CC(=O)SCCNC(=O)CCNC(=O)[C@H](O)C(C)(C)COC(=O)[C@@H](N)Cc1ccc(O)c(O)c1 [Compound 498, (3R)-3-[(2-[[2-(acetylsulfanyl)ethyl]carbamoyl]ethyl)carbamoyl]-3-hydroxy-2,2-dimethylpropyl (2S)-2-amino-3-(3,4-dihydroxyphenyl)propanoate]
- % decrease in sTNFα ([2]; 1 uM): ≥10%
- inhibition at 1 µM ([2]; 1 uM, read-out: % decrease in IL-8): ≥ 20%
- inhibition at 1 µM [2, 10]: ≥ 10%
- inhibition at 10 µM [2, 13]: ≥ 10%
- % increase in IL-6 ([3]; 1 uM, procedure of Example 832): ≥10%
- % increase in sTNFα ([4]; 1 uM, procedure of Example 829): ≥10%
- % increase in sIL-2 [4, 9]: ≥20%

Compound: CC(O)CC(O)CC(O)CC(=O)SCCNC(=O)CCNC(=O)[C@H](O)C(C)(C)CO (stereo partly drawn) [Compound 401]
- activation at 10 µM [1, 15]: ≥ 10%

Compound: CC(=O)OCC(C)(C)[C@@H](OC(C)=O)C(=O)NCCC(=O)NCCSC(C)=O [Compound 1264, (1R)-3-(acetyloxy)-1-[(2-[[2-(acetylsulfanyl)ethyl]carbamoyl]ethyl)carbamoyl]-2,2-dimethylpropyl acetate]
- activation at 10 µM [1, 6]: ≥ 10%
- % increase in IL-6 ([3]; 1 uM, procedure of Example 832): ≥10%
- % decrease in sTNFα [4, 9]: ≥10%
- % increase in B-cell Proliferation [4, 9]: ≥10%

Compound: CC(C)(COC(=O)OCC[N+](C)(C)C)[C@@H](O)C(=O)NCCC(=O)NCCSC(=O)CCC(=O)O [Compound 116, [2-([[(3R)-3-[[2-([2-[(3-carboxypropanoyl)sulfanyl]ethyl]carbamoyl)ethyl]carbamoyl]-3-hydroxy-2,2-dimethylpropoxy]carbonyl]oxy)ethyl]trimethylazanium]
- inhibition at 10 µM [2, 13]: ≥ 10%
- % decrease in Proliferation ([3]; 1 uM, procedure of Example 832): ≥10%
- % decrease in B-cell proliferation ([4]; 1 uM, procedure of Example 829): ≥10%
- % decrease in sTNFα [4, 9]: ≥10%

Compound: CCC(=O)CC(=O)SCCNC(=O)CCNC(=O)[C@H](O)C(C)(C)CO [Compound 382, (2R)-2,4-dihydroxy-3,3-dimethyl-N-[2-([2-[(3-oxopentanoyl)sulfanyl]ethyl]carbamoyl)ethyl]butanamide]
- activation at 10 µM [1, 6]: ≥ 10%
